Measurements reported in US6391876B1 (Pharmacia and Upjohn Company, priority 1998, dated 2002).

Tests used:
[1] = test system: patients with panic Disorder with or without Agoraphobia
[2] = test system: patients with a DSM-III-R diagnosis of Obsessive Compulsive Disorder; experiment: trial in patients with Obsessive Compulsive Disorder; type: in vivo, human; details: 10 OCD patients, 3 to 4 weeks, 6 mg first week then 8 mg per day
[3] = test system: I-adrenerigic receptors; experiment: interaction with I-adrenerigic receptors; type: binding
[4] = test system: muscarinic cholinergic receptors; experiment: interaction with muscarinic cholinergic receptors; type: binding
[5] = in vivo; cited from earlier work
[6] = test system: norepinephrine uptake
Source text: (§1) Leonard-BE, “Noradrenaline in basic models of depression.” European-Neuropsychopharmacol. April 1997; 7 Suppl 1: S11-6; discussion S71-3.

[7] = test system: monoamine oxidase (MAO)
Source text: as §1

[8] = test system: dopamine uptake
Source text: as §1

[9] = test system: serotonin uptake
Source text: as §1

[10] = vs placebo, at some point in time

## CCOc1ccccc1OC(c1ccccc1)C1CNCCO1 (stereo not drawn) [reboxetine]
[1]; 37 patients on reboxetine vs 38 on placebo
  mean number of major panic attacks: significantly lower than for those on placebo
[1]; [10]
  anticipatory anxiety: better
  phobic symptoms: better
  social and family adjustment: better
[2]
  patients judged minimally improved at CGI last assessment: 2
  patients judged much improved at CGI last assessment: 4
  patients judged very much improved at CGI last assessment: one
  patients unchanged at CGI last assessment: 3
[3]
  interaction with I-adrenerigic receptors: without showing any appreciable interaction
[4]
  interaction with muscarinic cholinergic receptors: without showing any appreciable interaction
[5]
  effect in the 8-OH-DPAT hypothermia test: ineffective
[6]
  norepinephrine uptake inhibitory activity: highly selective norepinephrine uptake inhibitor
[7]
  monoamine oxidase (MAO) inhibitory activity: devoid of monoamine oxidase (MAO) inhibitory activity
[8]
  dopamine uptake inhibitory activity: no dopamine uptake inhibitory activity
[9]
  serotonin uptake inhibitory activity: only marginal
